Assay results from patent publication US9133115B2 (ACHILLION PHARMACEUTICALS, INC., priority 2008, dated 2015).

These molecules were tested on HCV replicon (assay: HCV replicon replication assay (NPT ELISA) in Huh-7 replicon-containing cells). Conditions: Hepatitis C virus, 72 h; HCV replicon in Huh-7 cells, three days incubation; read-out: EC50.
Assay type: cell-based
Summary of the method: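 Replication was scored by capture ELISA of neomycin phosphotransferase, whose level tracks replicon replication, after graded compound treatment. The cells were Huh-7 harbouring an HCV-IRES/neo/EMCV-IRES/NS3–NS5B/3′-NTR replicon, plated at 6000-7500 cells/well and dosed 24 h later at 60-70% confluence; interferon alpha was the positive control.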
C=C[C@@H]1C[C@]1(NC(=O)[C@@H]1C[C@@H](N(Cc2ccccn2)C(=O)n2c3ccccc3c3ccccc32)CN1C(=O)[C@@H](CC(=O)N1CCCCC1)C(C)(C)C)C(=O)NS(=O)(=O)C1CC1 [Compound 191, N-((3R,5S)-1-((S)-2-tert-butyl-4-oxo-4-(piperidin-1-yl)butanoyl)-5-((1R)-1-(cyclopropylsulfonyl-carbamoyl)-2-vinyl-cyclopropyl-carbamoyl)pyrrolidin-3-yl)-N-(pyridin-2-ylmethyl)-9H-carbazole-9-carboxamide] was tested, and the EC50 was < 1 µM. For C=C[C@@H]1C[C@]1(NC(=O)[C@@H]1C[C@@H](Oc2nc(-c3ccccn3)cc3c(Cl)c(OC)ccc23)CN1C(=O)[C@@H](CC(=O)N1CCCCC1)C(C)(C)C)C(=O)NS(=O)(=O)C1CC1 [Compound 243, (2S,4R)-1-((S)-2-tert-butyl-4-oxo-4-(piperidin-1-yl)butanoyl)-4-(5-chloro-6-methoxy-3-(pyridin-2-yl)isoquinolin-1-yloxy)-N-((2S)-1-(cyclopropyl-sulfonylcarbamoyl)-2-vinylcyclo-propyl)pyrrolidine-2-carboxamide], the EC50 was < 1 µM. With C=CC1CC1(NC(=O)C1C[C@@H](Oc2cc(-c3ccccc3)nc3cc(OC)ccc23)CN1C(=O)[C@H](CC(=O)N1CCCCC1)CC(C)C)C(=O)NS(=O)(=O)C1CC1 (stereo partly drawn) [Compound 51, (4R)-N-(1-(cyclopropyl-sulfonylcarbamoyl)-2-vinylcyclopropyl)-4-(7-methoxy-2-phenylquinolin-4-yloxy)-1-((S)-4-methyl-2-(2-oxo-2-(piperidin-1-yl)ethyl)pentano-yl)pyrrolidine-2-carboxamide] the EC50 was 1 to 10 µM. In the case of C=C[C@@H]1C[C@]1(NC(=O)[C@@H]1C[C@@H](Oc2cc(-c3ccccc3)nc3cc(OC)ccc23)CN1C(=O)[C@@H](CC(=O)N1CCCCC1)C(C)(C)C)C(=O)NS(=O)(=O)C(C)CC (stereo partly drawn) [Compound 135, (2S,4R)-1-((S)-2-tert-butyl-4-oxo-4-(piperidin-1-yl)butanoyl)-N-((1R,2S)-1-(sec-butylsulfonyl-carbamoyl)-2-vinylcyclopropyl)-4-(7-methoxy-2-phenylquinolin-4-yloxy)pyrrolidine-2-carboxamide], the EC50 is reported as < 1 µM. For C=C[C@@H]1C[C@]1(NC(=O)[C@@H]1C[C@@H](Oc2cc(-c3ccccn3)nc3cc(OC)ccc23)CN1C(=O)[C@@H](CC(=O)N1CC2CCC1C2)C(C)(C)C)C(=O)NS(=O)(=O)C1CC1 (stereo partly drawn) [Compound 220, (2S,4R)-1-((2S)-2-(2-(2-azabi-cyclo[2.2.1]heptan-2-yl)-2-oxoethyl)-3,3-dimethylbutanoyl)-N-((1R)-1-(cyclo-propylsulfonyl-carbamoyl)-2-vinylcyclopropyl)-4-(7-methoxy-2-(pyridin-2-yl)quinolin-4-yloxy)pyrrolidine-2-carboxamide], the EC50 was < 1 µM. C=C[C@@H]1C[C@]1(NC(=O)[C@@H]1C[C@@H](OC(=O)N(c2ccccc2)c2ccccc2)CN1C(=O)[C@@H](CC(=O)N1CCCCC1)C(C)(C)C)C(=O)NS(=O)(=O)C1CC1 [Compound 129, (3R,5S)-1-((S)-2-tert-butyl-4-oxo-4-(piperidin-1-yl)butanoyl)-5-((1R,2S)-1-(cyclopropylsulfon-ylcarbamoyl)-2-vinylcyclopropyl-carbamoyl)pyr-rolidin-3-yl diphenylcarbamate] was tested, and the EC50 was 1 to 10 µM. With C=C[C@@H]1C[C@]1(NC(=O)[C@@H]1C[C@@H](Oc2cc(-c3ccccc3)nc3cc(OC)ccc23)CN1C(=O)[C@@H](CC(=O)N1CCC(C(F)(F)F)CC1)C(C)(C)C)C(=O)NS(=O)(=O)C1CC1 [Compound 80, (2S,4R)-1-((S)-2-tert-butyl-4-oxo-4-(4-(trifluoro-methyl)piperidin-1-yl)butanoyl)-N-((1R,2S)-1-(cyclopropyl-sulfonylcarbamoyl)-2-vinylcyclopropyl)-4-(7-methoxy-2-phenylquinolin-4-yloxy)pyrrolidine-2-carboxamide] the EC50 was < 1 µM. C=C[C@@H]1C[C@]1(NC(=O)[C@@H]1C[C@@H](OC(=O)N2c3ccccc3C=Cc3ccccc32)CN1C(=O)[C@@H](CC(=O)N1CCCCC1)C(C)(C)C)C(=O)NS(=O)(=O)C1CC1 [Compound 131, (Z)-((3R,5S)-1-((S)-2-tert-butyl-4-oxo-4-(piperidin-1-yl)butanoyl)-5-((1R,2S)-1-(cyclopropylsulfon-ylcarbamoyl)-2-vinylcyclopropyl-carbamoyl)pyr-rolidin-3-yl)5H-dibenzo[b,f]azepine-5-carboxylate] gave an EC50 of 1 to 10 µM. With C=C[C@@H]1C[C@]1(NC(=O)[C@@H]1C[C@@H](N(Cc2ccccn2)C(=O)n2c3ccccc3c3ccccc32)CN1C(=O)[C@@H](CC(=O)N1CCC(F)(F)C1)C(C)(C)C)C(=O)NS(=O)(=O)C1CC1 [Compound 193, N-((3R,5S)-1-((S)-2-tert-butyl-4-(3,3-difluoropyrrolidin-1-yl)-4-oxobutanoyl)-5-((1R)-1-(cyclopropylsulfonyl-carbamoyl)-2-vinylcyclopropyl-carbamoyl)pyrrolidin-3-yl)-N-(pyridin-2-ylmethyl)-9H-carbazole-9-carboxamide] the EC50 was < 1 µM. In the case of C=C[C@@H]1C[C@]1(NC(=O)[C@@H]1C[C@@H](Oc2cc(-c3ccccn3)nc3c(Cl)c(OC)ccc23)CN1C(=O)[C@@H](CC(=O)N1CCC(F)(F)C1)C(C)(C)C)C(=O)NS(=O)(=O)C1CC1 [Compound 206, (2S,4R)-1-((S)-2-tert-butyl-4-(3,3-difluoropyrrolidin-1-yl)-4-oxobutanoyl)-4-(8-chloro-7-methoxy-2-(pyridin-2-yl)quinolin-4-yloxy)-N-((1R)-1-(cyclopropylsulfonyl-carbamoyl)-2-vinylcyclopropyl)pyr-rolidine-2-carboxamide], the EC50 is reported as < 1 µM. C=C[C@@H]1C[C@]1(NC(=O)[C@@H]1C[C@@H](NC(=O)n2c3ccccc3c3ccccc32)CN1C(=O)[C@@H](CC(=O)N1CCC(F)(F)CC1)C(C)(C)C)C(=O)NS(=O)(=O)C1CC1 [Compound 187, N-((3R,5S)-1-((S)-2-tert-butyl-4-(4,4-difluoropiperidin-1-yl)-4-oxobutanoyl)-5-((1R,2S)-1-(cyclopropylsulfonyl-carbamoyl)-2-vinyl-cyclopropyl-carbamoyl)pyrrolidin-3-yl)-9H-carbazole-9-carboxamide] was tested, and the EC50 was < 1 µM. For C=CC1C[C@]1(NC(=O)[C@@H]1C[C@@H](Oc2cc(-c3ccccc3)nc3cc(OC)ccc23)CN1C(=O)[C@@H](CC(=O)N1CCCC(C(=O)N(CC)CC)C1)C(C)(C)C)C(=O)NS(=O)(=O)C1CC1 (stereo partly drawn) [Compound 159, 1-((S)-3-((2S,4R)-2-((1R,2S)-1-(cyclo-propylsulfonyl-carbamoyl)-2-vinyl-cyclopropyl-carbamoyl)-4-(7-methoxy-2-phenylquinolin-4-yloxy)pyrrolidine-1-carbonyl)-4,4-dimethylpentanoyl)-N,N-diethylpiper-idine-3-carboxamide], the EC50 was < 1 µM. In the case of C=C[C@@H]1C[C@]1(NC(=O)[C@@H]1C[C@@H](Oc2cc(-c3ccccc3)nc3cc(OC)ccc23)CN1C(=O)[C@@H](CC(=O)N1CCCCC1)C(C)(C)C)C(=O)NS(=O)(=O)Cc1ccccc1 [Compound 64, (2S,4R)-N-((1R,2S)-1-(benzylsulfonyl-carbamoyl)-2-vinylcyclopropyl)-1-((S)-2-tert-butyl-4-oxo-4-(piperidin-1-yl)butanoyl)-4-(7-methoxy-2-phenylquinolin-4-yloxy)pyrrolidine-2-carboxamide], the EC50 is reported as 1 to 10 µM. With C=C[C@@H]1C[C@]1(NC(=O)[C@@H]1C[C@@H](Oc2cc(-c3ccccn3)c3ccc4c(c3n2)CCO4)CN1C(=O)[C@@H](CC(=O)N1CCCCC1)C(C)(C)C)C(=O)NS(=O)(=O)C1CC1 [Compound 150, (2S,4R)-1-((S)-2-tert-butyl-4-oxo-4-(piperidin-1-yl)butanoyl)-N-((1R,2S)-1-(cyclo-propylsulfonyl-carbamoyl)-2-vinylcyclopropyl)-4-(4-(pyridin-2-yl)-8,9-dihydrofuro[2,3-h]quinolin-2-yloxy)pyrrolidine-2-carboxamide] the EC50 was < 1 µM. In the case of C=C[C@@H]1C[C@]1(NC(=O)[C@@H]1C[C@@H](Oc2cc(-c3nc(C(C)C)cs3)nc3cc(OC)ccc23)CN1C(=O)[C@@H](CC(=O)N1CCCCC1)C(C)(C)C)C(=O)NS(=O)(=O)C1CC1 [Compound 230, (2S,4R)-1-((S)-2-tert-butyl-4-oxo-4-(piperidin-1-yl)butanoyl)-N-((1R)-1-(cyclopropyl-sulfonylcarbamoyl)-2-vinylcyclopropyl)-4-(2-(4-isopropylthiazol-2-yl)-7-methoxyquinolin-4-yloxy)pyrrolidine-2-carboxamide], the EC50 is reported as < 1 µM. Work on COc1ccc2c(O[C@@H]3C[C@@H](C(=O)N[C@@H](C(=O)NS(=O)(=O)C4CC4)C(C)C)N(C(=O)[C@@H](CC(=O)N4CCCCC4)C(C)(C)C)C3)cc(-c3ccccc3)nc2c1 [Compound 118, (2S,4R)-1-((S)-2-tert-butyl-4-oxo-4-(piperidin-1-yl)butanoyl)-N-((R)-1-(cyclopropanesulfon-amido)-3-methyl-1-oxobutan-2-yl)-4-(7-methoxy-2-phenylquinolin-4-yloxy)pyrrolidine-2-carboxamide] yielded an EC50 of 1 to 10 µM. C=C[C@@H]1C[C@]1(NC(=O)[C@@H]1C[C@@H](Oc2cc(-c3ccccc3)nc3c(C)c(OC)ccc23)CN1C(=O)[C@@H](CC(=O)N1CCCC(F)(F)C1)C(C)(C)C)C(=O)NS(=O)(=O)C1CC1 [Compound 241, (2S,4R)-1-((S)-2-tert-butyl-4-(3,3-difluoropiperidin-1-yl)-4-oxobutanoyl)-N-((2S)-1-(cyclopropyl-sulfonylcarbamoyl)-2-vinylcyclopropyl)-4-(7-methoxy-8-methyl-2-phenylquinolin-4-yloxy)pyrrolidine-2-carboxamide] was tested, and the EC50 was < 1 µM. With C=C[C@@H]1C[C@]1(NC(=O)[C@@H]1C[C@@H](Oc2cc(-c3ccccc3)nc3cc(OC)ccc23)CN1C(=O)[C@@H](CC(=O)N1C(C(=O)O)CC2CCCCC21)C(C)(C)C)C(=O)NS(=O)(=O)C1CC1 (stereo partly drawn) [Compound 142, 1-((S)-3-((2S,4R)-2-((1R,2S)-1-(cyclo-propylsulfonyl-carbamoyl)-2-vinyl-cyclopropyl-carbamoyl)-4-(7-methoxy-2-phenylquinolin-4-yloxy)pyrrolidine-1-carbonyl)-4,4-dimethylpentano-yl)octahydro-1H-indole-2-carboxylic acid] the EC50 was < 1 µM.
